“And” between values parts separate entries of the source, which are not always exact repeats. Equal values may be shown once. Read-outs that look alike come from different tables or passages of the source.
Legend:
[1] = test system: T. b. brucei bloodstream forms; settings: Ref. 25; read-out: EC50 in T. b. brucei BSFs; cited from earlier work
cruzain = cruzain (Trypanosoma cruzi, UniProt P25779); assay: biochemical; settings: for Ki: pH 7.5
In short: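 Fluorogenic assay at 25 °C following AMC release (ex 360/em 460 nm), with typically 0.2 nM cruzain and 10% DMSO, at pH 7.5 or 5.5 buffer with 5 mM DTT.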

[2] = Host cell cytotoxicity in the T. cruzi infection model; assay type: cell-based, mouse; settings: mouse; host cardiomyoblasts; read-out: C2C12 Cytotoxicity CC50
Description: The plates were incubated at 37° C. for 48 h, and the wells were fixed with 2% paraformaldehyde in PBS and stained with 5 μg mL-1 4,6-diamidino-2-phenylindole. After at least 30 min of incubation at room temperature in the dark, the plates were read in an automated microscope, ImageXpress Micro XL (Molecular Devices), and the images were analyzed by custom-built software to quantify and assess viability of the parasites, as well as the host cells independently. The compilation of data was used to calculate the antiparasitic activity (EC50) and host cytotoxicity (CC50).
T. cruzi infection was evaluated in C2C12 murine cardiomyoblast cells. […] The wells were fixed with 2% PFA in PBS, and stained by 5 μg/ml of DAPI. After >30 min of incubation in a dark environment, the plates were read on an ImageXpress MicroXL microscope (Molecular Devices). The images were analyzed to quantify parasites as well host cells.

[3] = test system: T. b. brucei procyclic forms; assay: Growth of axenic cultures of T. b. brucei procyclic forms (PCFs); assay type: cell-based, Trypanosoma brucei brucei; settings: Trypanosoma brucei, axenic culture; read-out: EC50 T. b. brucei PCF
human cathepsin L = human cathepsin L (Homo sapiens (Human), UniProt P07711); assay: Human cathepsin L inhibition, Z-FR-AMC assay; assay type: biochemical; settings: pH 5.5, 25° C., 10% DMSO; read-out: Ki* Human Cathepsin L
human cathepsin L, sequence (P07711 114-333): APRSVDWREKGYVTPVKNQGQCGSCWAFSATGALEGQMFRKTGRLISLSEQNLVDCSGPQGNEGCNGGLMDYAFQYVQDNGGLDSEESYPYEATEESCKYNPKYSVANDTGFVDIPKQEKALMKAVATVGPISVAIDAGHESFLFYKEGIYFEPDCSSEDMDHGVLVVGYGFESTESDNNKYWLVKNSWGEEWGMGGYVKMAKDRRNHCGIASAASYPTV
In short: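 Recombinant human enzymes were assayed at 25°C in sodium acetate pH 5.5 with 1 mM CHAPS, 1 mM EDTA, 5 mM DTT and 10% DMSO final, using the fluorogenic substrate Z-FR-AMC. AMC release (ex 360/em 460 nm) was followed over 30–60 min and converted to rates (μM/s) via an AMC standard curve.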

human dermal fibroblasts = assay: Human cell toxicity, resazurin viability; assay type: cell-based; settings: human dermal fibroblasts; read-out: Human Cell Cytotoxicity CC50
Description: Primary human dermal fibroblast (HDF) cells were used to evaluate human cell toxicity of cruzain inhibitors. HDF cells were plated in a 384-well plate at 2400 cells per well (62,000 cells mL^−1). Inhibitors in 100% DMSO were added in duplicate to final concentrations of 0.001-0.1 mM and 1% DMSO (v/v) with 1% DMSO as a control sample, and cells were cultured at 37° C. for 48 h, followed by the addition of resazurin. Cell viability was then assessed by reading of fluorescence (excitation/emission: 544 nm/590 nm) after an additional 24 h of incubation.

human cathepsin B = human cathepsin B (Homo sapiens (Human), UniProt P07858); assay: Human cathepsin B inhibition, Z-FR-AMC assay; assay type: biochemical; settings: pH 5.5, 25° C., 10% DMSO; read-out: Ki* Human Cathepsin B
Description: Recombinant human cathepsins B and L were purchased from Millipore Sigma and used without further treatment. The solid proteins were dissolved into a solution of 50 mM sodium acetate (pH 5.5), 1 mM EDTA, 1 mM CHAPS, 10% (v/v) DMSO, and 5 mM DTT to final concentrations of […] in 20-mL aliquots, and stored at −80° C. until needed. These samples were then diluted into the same buffer to concentrations of −100 nM, and these dilutions were stored at 4° C. and used daily until depletion.
For assays of cathepsin L and B, inhibitors were evaluated in 0.25-mL reaction mixtures containing a buffer of sodium acetate (pH 5.5), 1 mM CHAPS, 1 mM Na2EDTA, and 5 mM DTT at 25° C. The fluorogenic substrate Cbz-Phe-Arg-7-amino-4-methyl-coumarin (Z-FR-AMC) was dissolved in 100% DMSO, as were all inhibitors, and aliquots of both substrates and inhibitors were added to reaction mixtures to final concentrations of DMSO of 10% (v/v). […] Formation of the fluorescent product AMC was monitored over 30-60-minute time courses for reaction mixtures in 96-well black microplates (Corning Costar®). Rates of peptidolysis of the dipeptide-AMC substrate(s) were measured on either a SpectraMax M5 (Molecular Devices) or a Synergy HTX (Biotek, Wisnooki, VT) microplate reader with λex=360 nm, λem=460 nm in ≥8-sec intervals. Control samples excluded substrate. The measured relative fluorescence units (RFUs) of generated AMC were converted to reaction rates of μM/s by use of a standard curve of known AMC concentrations obtained for both plate readers.

human cathepsin S = human cathepsin S (Homo sapiens (Human), UniProt P25774); assay: Human cathepsin S inhibition; assay type: biochemical; settings: pH 5.5, 25° C., 10% DMSO
human cathepsin S, sequence (P25774 115-331): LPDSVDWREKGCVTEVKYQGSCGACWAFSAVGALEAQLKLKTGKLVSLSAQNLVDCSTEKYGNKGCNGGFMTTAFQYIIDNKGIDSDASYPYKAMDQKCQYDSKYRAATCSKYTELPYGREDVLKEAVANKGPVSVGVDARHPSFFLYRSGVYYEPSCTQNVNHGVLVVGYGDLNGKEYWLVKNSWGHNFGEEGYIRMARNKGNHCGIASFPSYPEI
Description: Cruzain inhibitors were added at seven concentrations and one fixed concentration of Cbz-Phe-Arg-AMC, and time courses of AMC formation were analyzed as with cruzain.

[4] = Thiolation of inhibitors with glutathione, LCMS; assay type: physicochemical; settings: 1 mM glutathione, 0.5 mM compound, Tris pH 8.0, 10% DMSO, room temperature
Description: Samples were analyzed by HPLC-MS (as described above) by injecting 0.01 mL aliquots onto a Luna […] C18(2) 100 Å, 4.6 mm, 50 mm column (Phenomenex) using the HPLC method described in the chemistry section at 0-6 h time points. […] Integration of the chromatographic peaks of the inhibitors and their GSH adducts at each time point was used to determine the rate of GSH adduct formation.

CYPs 3A4, 2D6 and 2C9 [5] = assay: Stability of acetal prodrugs to CYPs; settings: CYP 3A4, 2D6, 2C9, NADPH-regenerating system, up to 4 h
[6] = test system: SARS-CoV-2 in Vero E6 cells; assay: Anti-CoV-2 activity in Vero E6 cells; assay type: cell-based
[7] = test system: SARS-CoV-2 in A549/ACE2 cells; assay type: cell-based; settings: read-out: Anti-CoV-2 EC50 A549/ACE2 Cells
[8] = test system: T. b. brucei bloodstream forms; assay: Growth of axenic cultures of T. b. brucei bloodstream forms (BSFs)
Description: Selected cruzain inhibitors were evaluated in axenic cell cultures of T. b. brucei and T. cruzi. Procyclic trypomastigotes of T. b. brucei (ATCC PRA-381) were grown in the SDM-79 medium at 26° C., and bloodstream forms (ATCC PRA-383) were grown at 37° C. in the HMI-9 medium at 5% C02. […] Both forms of T. b. brucei and T. cruzi were grown in media containing 10% fetal bovine serum (FBS) and penicillin/streptomycin (50 U mL^−1). […] Control samples contained equal amounts of DMSO. T. b. brucei and T. cruzi (5 mL in flask cultures) were seeded at ˜3×10^6 cells and diluted daily, maintaining a mid-log growth phase for up to 120 h. […] After each cell dilution, fresh compound or an equal volume of DMSO (control samples) was supplemented into the cultures, while maintaining a constant concentration of each inhibitor. Cell counts were scored using a Z2 Coulter Counter.
In vitro Cell Assays. Bloodstream form T. b. brucei strain SM427 was grown in HM1-9 medium that included fetal bovine serum (10%) and antibiotics (100 U/mL penicillin-streptomycin, Gibco™). Inhibitors dissolved in 100% (v/v) DMSO stock solutions were added at final concentrations of 0.5-20 μM (final concentrations of DMSO were <1% (v/v)). T. b. brucei were seeded at ˜1×10^6 cells at 37° C., and diluted daily to maintain a log phase of growth for up to 96 h. […] After each dilution, the cell cultures were supplemented with inhibitor or DMSO (control) to keep concentrations constant. Cell density was determined and graphed as previously reported.^36 Trypanosomes were quantified using a Z2 Coulter Counter, and values of EC50 were determined after 3-4 days of treatment by the interpolation method of Huber and Koella.^37

[9] = Detection of aldehyde content using phenylhydrazine; assay type: physicochemical; settings: 1 mM phenylhydrazine
Description: Detection of Aldehyde Content Using Phenylhydrazine. In a 96-well clear microplate, compounds 52 and 36 in DMSO solutions, or pure DMSO as a control, were diluted into the above NMR buffer without addition of DTT to make 250 μL-samples, each containing 0.2 mM of compounds and 10% DMSO (v/v). Upon addition of 1M phenylhydrazine (0.25 μL), the formation of phenylhydrazone in these wells were continuously monitored for 2 hours by measuring UV absorbance at the maximal wavelength of 282 nm.

[10] = test system: T. cruzi (Ca-I/72) in C2C12 murine cardiomyoblasts; assay: T. cruzi-infected murine cardiomyoblasts (C2C12); assay type: cell-based, Trypanosoma cruzi
In short: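 Infected-host-cell imaging assay: inhibitor, 3-fold dilutions topping at 10 μM, was added to C2C12 murine cardiomyoblasts infected with 10^3 or 10^4 Ca-I/72 parasites for 2 days at 37° C. DAPI-stained fixed wells were imaged to count parasites and host cells separately, yielding antiparasitic EC50 and cytotoxic CC50.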

[11] = test system: esterase from porcine liver; assay: Hydrolysis of SMAI prodrugs by porcine esterase; assay type: in vitro ADME; settings: for half-life of conversion to compound 36: porcine esterase, buffer pH 7.5, 37° C.
Description: Evaluation of SMAI Prodrugs. Esterase from porcine liver was obtained as an ammonium sulfate suspension (Sigma-Aldrich, E2884, 10 U/μL). Compounds 37-39 in 100% (v/v) DMSO solutions were diluted by 10-fold into cruzain assay buffer to make 1 mL-samples, each containing 2 mM compound. For the experimental sample, 4 μL of esterase suspension was added to the reaction mixtures (40 U/mL), which was immediately placed on a low-speed orbital shaker in a 37° C. incubator. In the meantime, a negative control (lacking esterase) and a blank control (buffer only) were included. Aliquots (140 μL) of the reaction mixtures were removed at 0, 15, 30, 60, 120, 180, and 300 min, and reactions were quenched by the addition of MeCN (260 μL). The resulting solution was vortexed, followed by centrifugation to precipitate the protein, and the resulting compounds in the supernatant were analyzed by HPLC-MS with detection at 270 nm.
Rates of de-acylation reactions of SMAI prodrugs 37-39 were obtained upon evaluation of the first-order loss of reagent as fitted to eq. 6, in which A0 and C are the initial and final fraction of unhydrolyzed compound, respectively, k is the pseudo-first order rate constant, from which the half-life was t1/2=ln 2/k.

CYPs 3A4, 2D6 and 2C9 [12] = settings: human, 4 h, 0.5 mM, pH 7.5
[13] = test system: T. cruzi (Ca-I/72) in C2C12 murine cardiomyoblasts; settings: antichagasic activity, Ref. 55; cited from earlier work
[14] = apparent tight-binding inhibition constant, 25° C., read-out: Ki*
[15] = obtained >10 minutes following initiation of reaction by addition of enzyme, read-out: Ki* Cruzain
[16] = read-out: EC50 T. b. brucei BSF, axenic culture
[17] = C2C12 murine cardiomyoblasts, read-out: EC50 T. cruzi-infected cardiomyoblasts

cruzain, sequence (P25779 123-467 limits assumed): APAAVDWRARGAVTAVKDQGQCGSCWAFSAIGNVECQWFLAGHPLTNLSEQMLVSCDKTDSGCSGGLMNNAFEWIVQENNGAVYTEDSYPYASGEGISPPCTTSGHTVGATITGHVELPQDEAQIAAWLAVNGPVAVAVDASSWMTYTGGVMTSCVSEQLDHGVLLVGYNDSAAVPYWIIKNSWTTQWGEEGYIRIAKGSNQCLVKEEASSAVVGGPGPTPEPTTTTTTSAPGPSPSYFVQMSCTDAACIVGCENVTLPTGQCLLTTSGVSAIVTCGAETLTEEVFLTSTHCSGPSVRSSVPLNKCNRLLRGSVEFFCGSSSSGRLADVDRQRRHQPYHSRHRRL

SMILES	Ki (cruzain; [14]) [µM]	Ki (cruzain; [15]) [µM]	EC50 [6] [µM]	EC50 [7] [µM]	EC50 [8, 16] [µM]	half-life of conversion to compound 36 [11] [min]	also measured
N=C(N)c1ccc(/N=N/Nc2ccc(C(=N)N)cc2)cc1 [diminazene]	–	–	–	–	–	–	EC50 [1]: 0.99 µM
O=C(N[C@@H](Cc1ccccc1)C(=O)N[C@H](/C=C/c1ncccn1)Cc1ccccc1)OCc1ccccc1 [Compound 7, Benzyl ((S)-1-Oxo-3-phenyl-1-(((S,E)-1-phenyl-4-(pyrimidin-2-yl)-but-3-en-2-yl)amino)propan-2-yl)carbamate]	0.38	–	–	–	–	–	Ki (cruzain; Ki* Cruzain, obtained >10 minutes following initiation of reaction by addition of enzyme): 0.12 to 0.4 µM and 0.31 µM; Ki (cruzain; apparent initial inhibition constant, 25° C., read-out: Ki): 28 ± 1 µM; k4 (cruzain; conversion of EI* back to EI, from kobs replot or recovery after preincubation and dilution): 0.0018 ± 0.0003 s⁻¹; CC50 at 48 h [2]: > 10 µM; EC50 [3]: 5 to 15 µM; Ki (human cathepsin L): 1.1 ± 0.1 µM; CC50 (human dermal fibroblasts): > 100 µM; Ki (human cathepsin B): 32 ± 3 µM; Ki (human cathepsin S): 0.37 ± 0.02 µM; Rate of Thiolation, k [4]: Negligible
CC(C)OC1Oc2ccccc2C[C@@H]1NC(=O)[C@H](Cc1ccccc1)NC(=O)N1CCN(C)CC1 (stereo partly shown) [Compound 41]	> 5	> 5	> 20	5	14 ± 0.9	–	transformation to 36 by CYPs (CYPs 3A4, 2D6 and 2C9 [5]): no transformation to 36 was observed
CN1CCN(C(=O)N[C@@H](Cc2ccccc2)C(=O)N[C@H](C=O)CCc2ccccc2)CC1 [Compound 52, 4-Methyl-N—((S)-1-oxo-1-(((S)-1-oxo-4-phenylbutan-2-yl)amino)-3-phenylpropan-2-yl)piperazine-1-carboxamide]	–	0.0005 ± 0.0002	–	–	–	–	residence time (cruzain): 45 min; kobs of phenylhydrazone formation ([9]; 0.2 mM compound): (2.61±0.05)×10^−4 s^−1; free aldehyde by phenylhydrazine treatment ([9]; aqueous buffer, 2 hours): completely converted to phenylhydrazone
CC(C)C(=O)OC1Oc2ccccc2C[C@@H]1NC(=O)[C@H](Cc1ccccc1)NC(=O)N1CCN(C)CC1 (stereo partly shown) [Compound 39]	–	> 5	4	0.31	4 ± 0.2	16	EC50 [10, 17]: 14 ± 6 µM
CCOC1Oc2ccccc2C[C@@H]1NC(=O)[C@H](Cc1ccccc1)NC(=O)N1CCN(C)CC1 (stereo partly drawn) [Compound 40, N-((2S)-1-(((3S)-2-ethoxychroman-3-yl)amino)-1-oxo-3-phenylpropan-2-yl)-4-methylpiperazine-1-carboxamide]	–	–	–	–	12 ± 0.1	–	transformation to 36 by CYPs (CYPs 3A4, 2D6 and 2C9 [12]): no transformation to 36 was observed; EC50 ([8]; Trypanosoma brucei, read-out: EC50 T. b. brucei BSF, axenic culture): 11 to 14 µM
O=C(Cn1ccnc1[N+](=O)[O-])NCc1ccccc1 [benznidazole, reference compound]	–	–	–	–	–	–	EC50 ([10]; Trypanosoma cruzi, C2C12, read-out: EC50 T. cruzi-infected cardiomyoblasts): 4 ± 2 µM; LD50 [13]: 1.5 µM
CC(=O)OC1Oc2ccccc2C[C@@H]1NC(=O)[C@H](Cc1ccccc1)NC(=O)N1CCN(C)CC1 (stereo partly drawn) [Compound 37, (3S)-3-((S)-2-(4-methylpiperazine-1-carboxamido)-3-phenylpropanamido)chroman-2-yl acetate]	1	~1	2.5	0.31	3.7	48	EC50 [10, 17]: 13 ± 2 µM; degradation in buffer without esterase ([11]; over 3 h, pH 7.5): about 10%
CCC(=O)OC1Oc2ccccc2C[C@@H]1NC(=O)[C@H](Cc1ccccc1)NC(=O)N1CCN(C)CC1 (stereo partly shown) [Compound 38]	–	> 5	2.5	0.62	3.1 ± 0.2	24	–

Source: patent US20240150396A1 (The Texas A&M University System, priority 2021, published 2024)
